Laboratory results: the NIST ThermoML archive (doi:10.1016/j.tca.2016.09.007)
Numbers after ± are expanded uncertainties.

Conditions: Crystal; DTA

Normal melting temperature: 38.00 ± 1 °C
Compound: O=C1OCCO1 [ethylene carbonate]
